pKi: −log10 of the molar value. Like-named read-outs stand apart in the source and are kept apart here.
Biological target: T1, MCH receptor (Homo sapiens, UniProt Q99705)
T1 construct: expressed in transfected cells; host or cells: CHO cells
Experiment: MCH Receptor Binding Assay ([125I]-MCH, SPA, membranes from CHO cells expressing the MCH receptor)
Details: CHO cell membranes
Description: MCH Receptor Binding Assay:
Membranes from CHO cells expressing the MCH receptor were prepared by lysing cells with 5 mM HEPES for 15 min at 4C. Cell lysates were centrifuged ([…], 15 min) and the pellet was resuspended in 5 mM HEPES. For each 96-well plate (Microlite, Dynex Technologies), 1 mg of cell membranes were incubated with 10 mg of wheat germ agglutinin SPA beads (Amersham) for 5 min at 4 C in a volume of 10 ml of binding buffer (25 mM HEPES, 10 mM MGCl2, 10 mM NaCl, 5 mM MnCl2, 0.1% BSA). The membrane/bead mixture was centrifuged (1500×g, 3.5 min), the supernatant was aspirated, and the pellet was resuspended in 10 ml binding buffer. The centrifugation, aspiration and resuspension were then repeated. The membrane/bead mixture (100 μl) was then added to 96-well plates containing 50 μof 500 pM [^125I]-MCH (NEN) and […] of the appropriate concentration of compound (4× the desired final concentration). Nonspecific binding was determined by including 1 μM MCH in the binding reaction. The binding reaction was incubated at room temperature for 2 h. Plates were then analyzed in a TOPCOUNT microplate scintillation counter (Packard). Data was analyzed and Ki values were determined using GraphPad Prism.

T1 sequence (Q99705 whole entry): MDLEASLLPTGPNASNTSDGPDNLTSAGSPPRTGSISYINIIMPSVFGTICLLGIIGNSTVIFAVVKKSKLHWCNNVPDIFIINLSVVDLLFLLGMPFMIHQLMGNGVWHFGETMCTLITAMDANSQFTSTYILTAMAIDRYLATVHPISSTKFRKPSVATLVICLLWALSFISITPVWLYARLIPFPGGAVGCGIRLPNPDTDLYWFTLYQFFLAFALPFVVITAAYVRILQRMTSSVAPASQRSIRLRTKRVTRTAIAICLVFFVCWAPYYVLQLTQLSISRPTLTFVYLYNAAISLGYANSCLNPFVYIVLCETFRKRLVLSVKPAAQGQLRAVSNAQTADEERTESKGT

| pKi (read-out: Activity (Ki class)) | pKi (read-out: Ki value) | Structure (SMILES) |
| --- | --- | --- |
| 7.00 to 7.52 |  | N#Cc1cccc(-c2ccc3c(c2)CCN(CC(=O)Nc2cc(Cl)cc(Cl)c2)C32CCNCC2)c1 [Compound 10c] |
| > 7.52 | 7.96 | N#Cc1cccc(-c2ccc3c(c2)CCN(CC(=O)Nc2cc(Cl)cc(Cl)c2)C32CCN(C3CCCCCC3)CC2)c1 [Compound 11a] |
| > 7.52 |  | N#Cc1cccc(-c2ccc3c(c2)CCN(CC(=O)Nc2cc(Cl)cc(Cl)c2)C32CCN(C3CCC3)CC2)c1 [Compound 11b] |
| > 7.52 |  | N#Cc1cccc(-c2ccc3c(c2)CCN(CC(=O)Nc2cc(Cl)cc(Cl)c2)C32CCN(CC3CC3)CC2)c1 [Compound 11c] |
| > 7.52 |  | N#Cc1cccc(-c2ccc3c(c2)CCN(CC(=O)Nc2cc(Cl)cc(Cl)c2)C32CCN(C3CCCC3)CC2)c1 [Compound 11d] |
| 7.00 to 7.52 |  | N#Cc1cccc(-c2ccc3c(c2)CCN(CC(=O)Nc2cc(Cl)cc(Cl)c2)C32CCN(CCO)CC2)c1 [Compound 11e] |
| 7.00 to 7.52 |  | CN1CCC2(CC1)c1ccc(-c3cccc(C#N)c3)cc1CCN2CC(=O)Nc1cc(Cl)cc(Cl)c1 [Compound 11f] |
| 7.00 to 7.52 |  | CCN1CCC2(CC1)c1ccc(-c3cccc(C#N)c3)cc1CCN2CC(=O)Nc1cc(Cl)cc(Cl)c1 [Compound 11g] |
| > 7.52 |  | N#Cc1cccc(-c2ccc3c(c2)CCN(CC(=O)Nc2cc(Cl)cc(Cl)c2)C32CCN(C3CCOCC3)CC2)c1 [Compound 11h] |
| 7.00 to 7.52 |  | N#Cc1cccc(-c2ccc3c(c2)CCN(CC(=O)Nc2cc(Cl)cc(Cl)c2)C32CCN(Cc3ccoc3)CC2)c1 [Compound 11i] |
| 7.00 to 7.52 |  | N#Cc1cccc(-c2ccc3c(c2)CCN(CC(=O)Nc2cc(Cl)cc(Cl)c2)C32CCN(C3CCSC3)CC2)c1 (stereo not shown) [Compound 11j] |
| < 7.00 |  | CC(C)N1CCC2(CC1)c1ccc(-c3cccc(C#N)c3)cc1CCN2Cc1nc2ccccc2[nH]1 [Compound 12a] |
| < 7.00 |  | N#Cc1cccc(-c2ccc3c(c2)CCN(Cc2nc4cc(Cl)c(Cl)cc4[nH]2)C32CCNCC2)c1 [Compound 12d] |
| < 7.00 |  | N#Cc1cccc(-c2ccc3c(c2)CCN(Cc2nc4cc(F)c(Cl)cc4[nH]2)C32CCNCC2)c1 [Compound 12e] |
| < 7.00 |  | N#Cc1cccc(-c2ccc3c(c2)CCN(Cc2nc4cc(Cl)c(Cl)cc4[nH]2)C32CCN(CC3CC3)CC2)c1 [Compound 12f] |
| < 7.00 |  | CC(C)(C)OC(=O)N1CCC2(CC1)c1ccc(-c3cccc(C#N)c3)cc1CCN2CC(=O)Nc1cc(Cl)cc(Cl)c1 [Compound 30a] |
| < 7.00 |  | CC(=O)N1CCC2(CC1)c1ccc(-c3cccc(C#N)c3)cc1CCN2CC(=O)Nc1cc(Cl)cc(Cl)c1 [Compound 30b] |
| < 7.00 |  | CS(=O)(=O)N1CCC2(CC1)c1ccc(-c3cccc(C#N)c3)cc1CCN2CC(=O)Nc1cc(Cl)cc(Cl)c1 [Compound 30c] |
| < 7.00 |  | CN(C)S(=O)(=O)N1CCC2(CC1)c1ccc(-c3cccc(C#N)c3)cc1CCN2CC(=O)Nc1cc(Cl)cc(Cl)c1 [Compound 30d] |

More lines, now with the values behind:

| Structure (SMILES) | pKi (read-out: Activity (Ki class)) | pKi (read-out: Ki value) |
| --- | --- | --- |
| CC(C)N1CCC2(CC1)c1ccc(-c3cccc(C#N)c3)cc1CCN2CC(=O)Nc1cc(Cl)cc(Cl)c1 [Compound 7a] | > 7.52 |  |
| CC(C)N1CCC2(CC1)c1ccc(-c3cccc(C#N)c3)cc1CCN2CC(=O)Nc1ccc(F)c(Cl)c1 [Compound 7b] | 7.00 to 7.52 |  |
| CC(C)N1CCC2(CC1)c1ccc(-c3cccc(C#N)c3)cc1CCN2CC(=O)Nc1cc(F)cc(F)c1 [Compound 7c] | 7.00 to 7.52 |  |
| CC(C)N1CCC2(CC1)c1ccc(-c3cccc(C#N)c3)cc1CCN2CC(=O)Nc1ccc(Cl)c(C(F)(F)F)c1 [Compound 7d] | < 7.00 |  |
| CC(C)N1CCC2(CC1)c1ccc(-c3cccc(C#N)c3)cc1CCN2CC(=O)Nc1ccc(Cl)c(Cl)c1 [Compound 7e] | < 7.00 |  |
| N#Cc1cccc(-c2ccc3c(c2)CCN(CC(=O)Nc2ccc(F)c(Cl)c2)C32CCN(CC3CC3)CC2)c1 [Compound 8a] | > 7.52 |  |
| N#Cc1cccc(-c2ccc3c(c2)CCN(CC(=O)Nc2ccc(Cl)cc2)C32CCN(CC3CC3)CC2)c1 [Compound 8b] | < 7.00 |  |
| N#Cc1cccc(-c2ccc3c(c2)CCN(CC(=O)Nc2cccc(Cl)c2)C32CCN(CC3CC3)CC2)c1 [Compound 8c] | 7.00 to 7.52 |  |
| N#Cc1cccc(-c2ccc3c(c2)CCN(CC(=O)Nc2ccc(F)c(F)c2)C32CCN(CC3CC3)CC2)c1 [Compound 8d] | 7.00 to 7.52 |  |
| N#Cc1cccc(-c2ccc3c(c2)CCN(CC(=O)Nc2ccc(F)c(C(F)(F)F)c2)C32CCN(CC3CC3)CC2)c1 [Compound 8e] | > 7.52 |  |
| N#Cc1cccc(-c2ccc3c(c2)CCN(CC(=O)Nc2cc(F)cc(C(F)(F)F)c2)C32CCN(CC3CC3)CC2)c1 [Compound 8f] | 7.00 to 7.52 |  |
| N#Cc1cccc(-c2ccc3c(c2)CCN(CC(=O)Nc2cc(F)cc(F)c2)C32CCN(CC3CC3)CC2)c1 [Compound 8g] | 7.00 to 7.52 |  |
| N#Cc1cccc(-c2ccc3c(c2)CCN(CC(=O)Nc2ccc(Cl)c(Cl)c2)C32CCN(CC3CC3)CC2)c1 [Compound 8h] | < 7.00 |  |
| N#Cc1cccc(-c2ccc3c(c2)CCN(CC(=O)Nc2ccc(Cl)c(C(F)(F)F)c2)C32CCN(CC3CC3)CC2)c1 [Compound 8i] | < 7.00 |  |

From patent publication US7109207B2, “Spirosubstituted piperidines as selective melanin concentrating hormone receptor antagonists for the treatment of obesity” (Schering Corporation, priority 2002, dated 2006)
